From ChEMBL document CHEMBL4033668, “Inhibitors of cytochrome P450 (CYP) 1B1” (Eur J Med Chem, 2017)
pIC50, pKi: −log10 of the molar value. Blank lines part the entries; values can stand above or below the compound they belong to.

Legend:
CYP1B1 = biological target: T1, CYP1B1 (Homo sapiens, UniProt Q16678); assay: (§1) Inhibition of CYP1B1 (unknown origin) expressed in Escherichia coli DH5alpha coexpressing human NADPH P450 reductase using 7-ethoxyresorufin as substrate after 2 to 6 mins in presence of NADPH by double reciprocal plot analysis; conditions: human, probe 7-ethoxyresorufin
T1 sequence (Q16678 whole entry): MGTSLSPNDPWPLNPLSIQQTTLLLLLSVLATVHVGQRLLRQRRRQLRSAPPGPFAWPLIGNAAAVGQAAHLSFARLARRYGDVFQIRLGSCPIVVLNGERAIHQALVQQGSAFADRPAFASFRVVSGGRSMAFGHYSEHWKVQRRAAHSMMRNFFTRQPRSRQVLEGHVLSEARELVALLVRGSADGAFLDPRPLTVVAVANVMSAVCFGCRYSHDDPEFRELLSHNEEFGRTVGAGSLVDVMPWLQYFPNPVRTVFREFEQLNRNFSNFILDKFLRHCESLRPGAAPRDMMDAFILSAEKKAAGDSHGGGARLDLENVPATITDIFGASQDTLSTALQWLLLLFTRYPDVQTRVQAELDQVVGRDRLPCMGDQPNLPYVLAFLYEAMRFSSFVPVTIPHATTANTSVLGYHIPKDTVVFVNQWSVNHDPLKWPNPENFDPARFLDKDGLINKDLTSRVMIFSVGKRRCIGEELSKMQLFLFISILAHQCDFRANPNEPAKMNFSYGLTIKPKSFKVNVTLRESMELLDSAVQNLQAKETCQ

Cytochrome P450 1B1 [1] = biological target: T2, Cytochrome P450 1B1 (Homo sapiens, UniProt Q16678); assay: as §1
T2 sequence (Q16678 whole entry): T1 sequence (Q16678 whole entry)

Cytochrome P450 1B1 [2] = biological target: T2, Cytochrome P450 1B1; assay: Competitive inhibition of CYP1B1 (unknown origin) expressed in yeast microsomes using (-)benzo[a]pyrene-7R-trans-7,8-dihyrodiol (B[a]P-7,8-diol) as substrate
Cytochrome P450 1A1 [3] = biological target: T3, Cytochrome P450 1A1 (Homo sapiens, UniProt P04798); assay: Inhibition of […] CYP1A1 expressed in Escherichia coli DH5alpha coexpressing NADPH-P450 reductase using 7-ethoxyresorufin O-deethylation as substrate in presence of NADPH by UV absorbance analysis; assay type: ADME
T3 sequence (P04798 whole entry): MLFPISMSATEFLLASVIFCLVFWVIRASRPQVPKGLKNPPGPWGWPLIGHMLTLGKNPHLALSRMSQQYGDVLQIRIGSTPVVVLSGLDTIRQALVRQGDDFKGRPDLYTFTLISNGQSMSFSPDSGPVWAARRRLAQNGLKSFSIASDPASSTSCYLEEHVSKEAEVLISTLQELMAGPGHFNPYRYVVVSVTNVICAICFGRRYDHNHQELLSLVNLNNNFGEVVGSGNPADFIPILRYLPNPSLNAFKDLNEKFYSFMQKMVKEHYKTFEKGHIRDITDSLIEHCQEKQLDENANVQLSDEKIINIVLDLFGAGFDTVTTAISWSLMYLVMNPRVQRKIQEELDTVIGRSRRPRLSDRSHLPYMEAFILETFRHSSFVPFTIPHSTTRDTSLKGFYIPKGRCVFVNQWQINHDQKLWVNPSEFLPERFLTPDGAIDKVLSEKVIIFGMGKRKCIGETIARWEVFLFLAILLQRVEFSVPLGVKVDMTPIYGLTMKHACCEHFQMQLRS

Cytochrome P450 1A2 [4] = biological target: T4, Cytochrome P450 1A2 (Homo sapiens, UniProt P05177); assay: Inhibition of […] CYP1A2 expressed in Escherichia coli DH5alpha coexpressing NADPH-P450 reductase using 7-ethoxyresorufin O-deethylation as substrate in presence of NADPH by UV absorbance analysis; assay type: ADME
T4 sequence (P05177 whole entry): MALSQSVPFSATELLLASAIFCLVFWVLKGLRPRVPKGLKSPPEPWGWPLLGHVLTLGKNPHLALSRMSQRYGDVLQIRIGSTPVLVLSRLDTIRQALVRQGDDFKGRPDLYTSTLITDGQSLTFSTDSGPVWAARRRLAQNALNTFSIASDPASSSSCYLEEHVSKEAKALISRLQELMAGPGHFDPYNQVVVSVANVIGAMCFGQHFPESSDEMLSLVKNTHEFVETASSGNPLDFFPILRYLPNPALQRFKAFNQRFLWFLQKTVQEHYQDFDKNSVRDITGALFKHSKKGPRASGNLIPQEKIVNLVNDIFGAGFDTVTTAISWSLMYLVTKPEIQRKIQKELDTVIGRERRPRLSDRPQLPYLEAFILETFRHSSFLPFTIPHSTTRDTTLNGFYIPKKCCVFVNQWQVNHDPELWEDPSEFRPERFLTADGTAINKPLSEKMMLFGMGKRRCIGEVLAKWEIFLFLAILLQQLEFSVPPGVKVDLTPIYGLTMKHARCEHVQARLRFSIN

Cytochrome P450 1B1 [5] = biological target: T2, Cytochrome P450 1B1; assay: Inhibition of […] CYP1B1 expressed in Escherichia coli DH5alpha coexpressing NADPH-P450 reductase using 7-ethoxyresorufin O-deethylation as substrate in presence of NADPH by UV absorbance analysis
Cytochrome P450 1B1 [6] = biological target: T2, Cytochrome P450 1B1; assay: Inhibition of recombinant CYP1B1 (unknown origin) expressed in supersomes coexpressing NADPH-CYP reductase using 7-ethoxyresorufin as substrate after 15 mins in presence of NADP+ by fluorescence spectrophotometric analysis
Cytochrome P450 1B1 [7] = biological target: T2, Cytochrome P450 1B1; assay: Inhibition of recombinant CYP1B1 (unknown origin) expressed in supersomes coexpressing NADPH-CYP reductase using 7-ethoxyresorufin as substrate after 15 mins in presence of NADP+ by Lineweaver-Burk plot analysis
Cytochrome P450 1B1 [8] = biological target: T2, Cytochrome P450 1B1; assay: Inhibition of CYP1B1 (unknown origin) expressed in Escherichia coli DH5alpha coexpressing human NADPH-P450 reductase using 7-Ethoxyresorufin as substrate up to 6 mins in presence of NADP+ by spectrofluorometric analysis
Cytochrome P450 1A1 [9] = biological target: T3, Cytochrome P450 1A1; assay: Inhibition of CYP1A1 (unknown origin) expressed in Escherichia coli DH5alpha coexpressing human NADPH-P450 reductase using 7-Ethoxyresorufin as substrate up to 6 mins in presence of NADP+ by spectrofluorometric analysis; assay type: ADME
Cytochrome P450 1A2 [10] = biological target: T4, Cytochrome P450 1A2; assay: Inhibition of CYP1A2 (unknown origin) expressed in Escherichia coli DH5alpha coexpressing human NADPH-P450 reductase using 7-Ethoxyresorufin as substrate up to 6 mins in presence of NADP+ by spectrofluorometric analysis; assay type: ADME
Cytochrome P450 1A1 [11] = biological target: T3, Cytochrome P450 1A1; assay: Inhibition of recombinant CYP1A1 (unknown origin) expressed in Escherichia coli DH5alphaF'Iq coexpressing human NADPH-P450 reductase using E2-d4 as substrate after 10 mins in presence of NADP+; assay type: ADME
Cytochrome P450 1B1 [12] = biological target: T2, Cytochrome P450 1B1; assay: Inhibition of recombinant CYP1B1 (unknown origin) expressed in Escherichia coli DH5alphaF'Iq coexpressing human NADPH-P450 reductase using E2-d4 as substrate after 10 mins in presence of NADP+
Cytochrome P450 1B1 [13] = biological target: T2, Cytochrome P450 1B1; assay: Inhibition of human CYP1B1 expressed in Escherichia coli DH5alpha coexpressing human NADPH-P450 reductase using 4-estradiol as substrate in presence of NADP+ by HPLC analysis
Cytochrome P450 1B1 [14] = biological target: T2, Cytochrome P450 1B1; assay: Inhibition of recombinant human CYP1B1 expressed in supersomes coexpressing NADPH-CYP reductase using 7-ethoxyresorufin as substrate after 15 mins in presence of NADP+ by Lineweaver-Burk plot analysis
Cytochrome P450 1B1 [15] = biological target: T2, Cytochrome P450 1B1; assay: Inhibition of CYP1B1 in […] recombinant human cytochrome P450 oxidoreductase using 7-ethoxyresorufin as substrate after 3 mins in presence of NADP+ by fluorescence assay
Cytochrome P450 1B1 [16] = biological target: T2, Cytochrome P450 1B1; assay: Inhibition of human CYP1B1 expressed in Escherichia coli DH5alpha coexpressing human NADPH P450 reductase using 7-ethoxyresorufin as substrate in presence of NADP+ by spectrofluorometeric analysis
Cytochrome P450 1B1 [17] = biological target: T2, Cytochrome P450 1B1; assay: Inhibition of human CYP1B1 expressed in Escherichia coli DH5alpha coexpressing human NADPH P450 reductase using 7-ethoxyresorufin as substrate in presence of NADP+ by fluorimetric analysis
Cytochrome P450 1B1 [18] = biological target: T2, Cytochrome P450 1B1; assay: Inhibition of recombinant human CYP1B1 expressed in Escherichia coli coexpressing human NADPH-cytochrome P450 reductase using 7-ethoxyresorufin as substrate by fluorescence spectrophotometric analysis
Cytochrome P450 1A1 [19] = biological target: T3, Cytochrome P450 1A1; assay: Inhibition of recombinant human CYP1A1 expressed in Escherichia coli coexpressing human NADPH-cytochrome P450 reductase using 7-ethoxyresorufin as substrate by fluorescence spectrophotometric analysis; assay type: ADME
Homo sapiens = organism: Homo sapiens; assay: Selectivity index, ratio of IC50 for recombinant human CYP1A1 expressed in Escherichia coli coexpressing human NADPH-cytochrome P450 reductase to IC50 for recombinant human CYP1B1 expressed in Escherichia coli coexpressing human NADPH-cytochrome P450 reductase

- kinact (CYP1B1): 0.000667 s⁻¹
- pKi (Cytochrome P450 1B1 [1]): 5.64
Compound: CC#Cc1ccc(-c2ccccc2)cc1

- pKi (Cytochrome P450 1B1 [2]): 3.23
Compound: CC(C)=CCC/C(C)=C/COc1c2ccoc2cc2oc(=O)ccc12 [BERGAMOTTIN]

- pIC50 (Cytochrome P450 1A1 [3]): 5.59
- pIC50 (Cytochrome P450 1A2 [4]): 5.59
- pIC50 (Cytochrome P450 1B1 [5]): 7.05
Compound: O=c1c2ccccc2nc2n1CCc1c-2[nH]c2ccc(O)cc12

- pKi (Cytochrome P450 1B1 [6]): 6.52
- pKi (Cytochrome P450 1B1 [7]): 7.39
Compound: COc1ccccc1/C=C/c1ccc(SC)cc1

Compound: N#C[Se]Cc1ccccc1 [BENZYLSELENOCYANATE]
- pIC50 (Cytochrome P450 1B1 [8]): 6.57 to 6.89
- pIC50 (Cytochrome P450 1A1 [9]): 6.35 to 7.00
- pIC50 (Cytochrome P450 1A2 [10]): 5.89 to 6.70

- pKi (Cytochrome P450 1A1 [11]): 4.06
- pKi (Cytochrome P450 1B1 [12]): 4.44
Compound: COc1cc2c(cc1O)CC[C@@H]1[C@@H]2CC[C@]2(C)[C@@H](O)CC[C@@H]12 [2-METHOXYESTRADIOL]

- pIC50 (Cytochrome P450 1B1 [13]): 5.39
Compound: COc1c(O)ccc2cc3[n+](cc12)CCc1cc2c(cc1-3)OCO2 [THALIDENDINE]

Compound: CC(C)=CCOc1c2occc2cc2ccc(=O)oc12 [PENTOSALEN]
- pKi (Cytochrome P450 1B1 [2]): 6.00

- pKi (Cytochrome P450 1B1 [6]): 4.95
- pKi (Cytochrome P450 1B1 [14]): 6.10
Compound: Oc1ccc(/C=C/c2cc(O)cc(O)c2)cc1 [RESVERATROL]

Compound: N#C[Se]Cc1ccccc1C[Se]C#N
- pIC50 (Cytochrome P450 1B1 [8]): 6.57 to 6.89
- pIC50 (Cytochrome P450 1A1 [9]): 6.35 to 7.00
- pIC50 (Cytochrome P450 1A2 [10]): 5.89 to 6.70

- pKi (Cytochrome P450 1B1 [15]): 5.43
Compound: COc1ccc(-c2coc3cc(O)ccc3c2=O)cc1 [FORMONONETIN]

Compound: COc1cc2c(cc1O)[C@H]1CC[C@]3(C)[C@@H](O)CC[C@H]3[C@@H]1CC2
- pKi (Cytochrome P450 1A1 [11]): 4.16
- pKi (Cytochrome P450 1B1 [12]): 4.55

- pIC50 (Cytochrome P450 1B1 [16]): 7.72
Compound: COc1ccc(-c2cc(=O)c3c(O)cc(O)cc3o2)cc1OC

Compound: c1ccc2c(c1)ccc1cc3c(ccc4ccccc43)cc12
- pIC50 (Cytochrome P450 1B1 [17]): 8.05

- pIC50 (Cytochrome P450 1B1 [8]): 4.40
Compound: CC[C@H]1OC(=O)[C@H](C)[C@@H](O[C@H]2C[C@@](C)(OC)[C@@H](O)[C@H](C)O2)[C@H](C)[C@@H](O[C@@H]2O[C@H](C)C[C@H](N(C)C)[C@H]2O)[C@](C)(O)C[C@@H](C)C(=O)[C@H](C)[C@@H](O)[C@]1(C)O [ERYTHROMYCIN]

- pKi (Cytochrome P450 1B1 [6]): 6.30
- pKi (Cytochrome P450 1B1 [7]): 7.52
Compound: COc1cccc(/C=C/c2ccc(SC)cc2)c1

Compound: COc1c(O)ccc2c1CC[C@@H]1[C@@H]2CC[C@]2(C)[C@@H](O)CC[C@@H]12
- pKi (Cytochrome P450 1B1 [12]): 3.83

- pIC50 (Cytochrome P450 1B1 [18]): 5.66
- pKi (Cytochrome P450 1B1 [18]): 6.15
- pIC50 (Cytochrome P450 1A1 [19]): 5.26
Compound: O=C1c2ccccc2C(=O)c2c(O)c(O)cc(O)c21 [PURPURIN]
- Ratio IC50 (Homo sapiens): 2.5
